Source: PubChem BioAssay (NCI)
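Five concentrations, 48 hours, 96-well plates. The concentration for full growth arrest is given as TGI.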

How the values were obtained:
Assay in all cases: DTP human tumour cell line panel, 48 h
SF-539 CNS = tested on: SF-539 CNS
SN12C renal = tested on: SN12C renal
MOLT-4 leukemia = tested on: MOLT-4 leukemia
OVCAR-8 ovarian = tested on: OVCAR-8 ovarian
PC-3 prostate = tested on: PC-3 prostate
MDA-MB-435 = tested on: MDA-MB-435
HOP-62 NSCLC = tested on: HOP-62 NSCLC
RXF 393 renal = tested on: RXF 393 renal
EKVX NSCLC = tested on: EKVX NSCLC
786-0 renal = tested on: 786-0 renal

Structure (SMILES)	TGI (SF-539 CNS) [µM]	TGI (SN12C renal) [µM]	TGI (MOLT-4 leukemia) [µM]	TGI (OVCAR-8 ovarian) [µM]	TGI (PC-3 prostate) [µM]	TGI (MDA-MB-435) [µM]	TGI (HOP-62 NSCLC) [µM]	TGI (RXF 393 renal) [µM]	TGI (EKVX NSCLC) [µM]	TGI (786-0 renal) [µM]
COc1ccc(-c2cc(-c3ccc(Nc4ccnc5cc(C(F)(F)F)ccc45)cc3)[nH]c(=O)c2C#N)cc1	> 68.9	> 100	> 100	> 100	> 100	> 100	> 41.1	> 53.5	> 100	> 100
O=c1[nH]c2cc([N+](=O)[O-])c(N(CCO)CCO)c([N+](=O)[O-])c2[nH]1	77.1	> 100	91.7	> 100	> 100	91.7	> 100	49.4	54.4	> 100
CC1(C)C(C(=O)OC(C#N)c2cccc(OCC(=O)OCc3ccccc3)c2)C1(C)C (stereo not given)	> 100	> 100	62.7	> 100	> 100	> 100	> 100	> 100	> 100	> 100
CC(=O)O[C@@H]1CC2[C@@H](CCC3Cc4nc5c(nc4C[C@@]32C)CC2CC[C@@H]3C(CC[C@@]4(C)C3CC[C@@H]4C(C)CCCC(C)C)[C@@]2(C)C5)C2C[C@@H]3OC4(CCC(C)CO4)C(C)[C@@H]3[C@]21C (stereo not given in full)	> 100	> 100	> 100	> 100	> 100	> 100	> 100	50.3	> 100	> 100
Cc1cc2nc(NS(=O)(=O)c3cc(C)c(Cl)cc3S)[nH]c2cc1C	> 100	> 100	> 100	> 100	> 100	> 100	> 100	> 100	> 100	> 100
O=C(OCc1c(-c2ccccc2)nn(-c2ccccc2)c1COC(=O)Oc1ccccc1)Oc1ccccc1	> 100	> 100	> 100	> 100	> 100	> 100	> 100	> 100	> 100	> 100
Nc1nc(SCc2ccccc2[N+](=O)[O-])c2[nH]cnc2n1	> 100	> 100	> 100	> 100	> 100	> 100	> 100	> 94	> 100	> 100
COc1cc(OC)c(NC2=NCCO2)cc1Cl	53.3	> 100	> 100	> 100	71.8	38.4	> 100	> 100	> 100	90
O=S(=O)(Nc1nc(-c2cc(O)c(O)c(O)c2)cs1)c1ccc(Cl)cc1Cl	71.5	33.4	52.7	14.9	> 100	56.9	35.1	71.4	33.5	46.2
Cn1c2cc(Cl)ccc2c2ccc3c(c21)C(=O)C=CC3=O	> 78.8	21.2	10.3	> 100	> 82	> 60.1	> 100	40	> 100	> 55.9
CC(C(O)c1ccccc1)[N+](=O)[O-] (stereo not given)	49.1	35.6	4.88	35	45.3	38.2	> 100	27.7	> 100	> 100
C/C(=N\Nc1ncnc2ccccc12)c1ccccn1	3.29	6.71	> 9.41	2.41	31.6	33	1.07	17.3	> 52.6	12.7
COc1cc(C2c3cc4c(cc3OC(N3CCOCC3)C2C)OCO4)cc(OC)c1OC (stereo not given)	1.69	> 100	> 38.2	59.2	> 100	0.549	52.8	1.22	> 100	28.6
FC(F)(F)c1nc2cc(SSc3cc4nc(C(F)(F)F)[nH]c4cc3Cl)c(Cl)cc2[nH]1	> 100	> 100	> 100	> 100	> 100	> 100	> 100	> 100	> 100	> 100
Cc1ccc(C(=O)/C=C/N2CCN(c3cccc(C(F)(F)F)c3)CC2)cc1	31.5	36.3	48.2	38.9	> 100	32.4	37.4	33.1	41.8	34
